Test results reported in US7339063B2, “Quinolyl organic germanium ester and the synthesis method thereof” (Changchun Institute of Applied Chemistry Chinese Academy of …, priority 2004, dated 2008).
Like-named read-outs stand apart in the source and are kept apart here. Marks after values point to notes of the source that are not given here.

Tested on: PC-3M prostate cancer cell line
Details: for inhibition fraction at the given concentration: PC-3M proliferation
Excerpt: Cytotoxicity of Quinolyl Germanyl Propionate Sesquioxide (a) and Quinolyl Germanyl-α-methyl Propionate Sesquioxide (b) Against PC-3M Prostate Cancer Cell Line
The only difference of these two compounds is with or without the methyl group in the linking chain of the Germanium and quinoline.

| Substance | inhibition fraction at the given concentration (10 μM, 24 h) | inhibition fraction at the given concentration (10 μM, 48 h) | inhibition fraction at the given concentration (10 μM, 72 h) | inhibition fraction at the given concentration (30 μM, 24 h) | inhibition fraction at the given concentration (30 μM, 48 h) | inhibition fraction at the given concentration (30 μM, 72 h) | inhibition fraction at the given concentration (60 μM, 24 h) | inhibition fraction at the given concentration (60 μM, 48 h) | inhibition fraction at the given concentration (60 μM, 72 h) | IC50 relative to that of Compound (b) (PC-3M, MTT method) | IC50 (PC-3M, measured by MTT method) |
| --- | --- | --- | --- | --- | --- | --- | --- | --- | --- | --- | --- |
| Quinolyl Germanyl-α-methyl Propionate Sesquioxide [Compound (b)] | 0.09 | 0.32 | 0.58 | 0.30 | 0.45 | 0.69 | 0.20 | 0.43 | 0.67 |  |  |
| Quinolyl Germanyl Propionate Sesquioxide [Compound (a)] | 0.34** | 0.69 | 0.62 | 0.48 | 0.74 | 0.74 | 0.50 | 0.74 | 0.78 | three fold lower | 10 µM |
